Source: the NIST ThermoML archive (doi:10.1016/j.jct.2007.11.009)

Assay: xn = mol fraction of the nth substance listed
Settings: 308.15 K, Liquid, Vibrating tube method

CCCCCCCC [octane] + c1ccccc1
mass density [kg/m3]
Settings | x1 = 0.1097 | x1 = 0.2036 | x1 = 0.2984 | x1 = 0.4069 | x1 = 0.5027 | x1 = 0.5904 | x1 = 0.6989 | x1 = 0.7964 | x1 = 0.904 | x1 = 1
20370 kPa | – | – | – | – | – | 751.8 | 738 | 727.1 | 716.3 | 707.6
22390 kPa | 846.8 | 822.6 | 801.8 | 781.5 | 765.8 | 753.3 | 739.6 | 728.6 | 717.8 | 709.1
24420 kPa | 848.3 | 824.1 | 803.4 | 783.1 | 767.4 | 754.8 | 741.1 | 730.1 | 719.3 | 710.6
26450 kPa | 849.8 | 825.6 | 804.9 | 784.6 | 768.9 | 756.3 | 742.6 | 731.6 | 720.8 | 712
28470 kPa | 851.3 | 827.1 | 806.4 | 786 | 770.4 | 757.8 | 744 | 733 | 722.2 | 713.4
29490 kPa | 852 | 827.8 | 807.1 | 786.8 | 771.1 | 758.5 | 744.8 | 733.7 | 722.9 | 714.1
30500 kPa | 852.7 | 828.6 | 807.8 | 787.5 | 771.8 | 759.2 | 745.5 | 734.4 | 723.6 | 714.8
32530 kPa | 854.2 | 830 | 809.2 | 788.9 | 773.2 | 760.7 | 746.9 | 735.8 | 725 | 716.2
34550 kPa | 855.5 | 831.4 | 810.6 | 790.3 | 774.6 | 762 | 748.3 | 737.2 | 726.3 | 717.5
36580 kPa | 856.9 | 832.8 | 812 | 791.7 | 776 | 763.4 | 749.6 | 738.5 | 727.7 | 718.8
38600 kPa | 858.3 | 834.2 | 813.4 | 793.1 | 777.3 | 764.7 | 750.9 | 739.9 | 729 | 720.2
39620 kPa | 859 | 834.9 | 814.1 | 793.7 | 778 | 765.4 | 751.6 | 740.6 | 729.7 | 720.8
